Results reported in patent publication US20250353812A1, “2,6-DIBENZYLIDENECYCLOHEXANONE OXIME COMPOUND AND PREPARATION METHOD THEREFOR AND USE THEREOF” (WENZHOU MEDICAL UNIVERSITY, priority 2022, published 2025).

Columns and labels:
TNF-α = assay: Inhibition of TNF-α release from J774A.1 macrophages stimulated by LPS (ELISA); type: cell-based; details: 10 μM compound pretreatment 2 h, then 0.5 μg/mL LPS 22 h, LPS control = 100, FIG. 2
Experimental: (§1) The present invention tested the dose-effect relationship of some of the compounds of Examples in inhibiting the release of IL-6 and TNF-α from J774A.1 macrophages stimulated by LPS. The specific method is as follows: 1.2×10^6 […] macrophages were cultured by DMEM culture solution at 37° C., the culture solution was renewed after 24 h, the tested example compound (at a final concentration of 10 μM) was added for pretreatment for 2 h and then continuously treated by 0.5 μg/mL of LPS for 22 h, the culture solution was collected, and the content of IL-6 and TNF-α was detected by ELISA method. The total protein concentration was measured by collecting cells, the ELISA results were divided by the corresponding total protein concentration and calibrated by the IL-6 and TNF-α content of LPS control group as 100, and the average and error values were calculated.

IL-6 = assay: Inhibition of IL-6 release from J774A.1 macrophages stimulated by LPS (ELISA); type: cell-based; details: 10 μM compound pretreatment 2 h, then 0.5 μg/mL LPS 22 h, LPS control = 100, FIG. 1
Experimental: as §1

SMILES	inhibitory effect on the release of TNF-α (TNF-α)	inhibitory effect on the release of IL-6 (IL-6)
Fc1ccc(CCON=C2/C(=C/c3ccccc3C(F)(F)F)CCC/C2=C\c2ccccc2C(F)(F)F)cc1 [Example 25, 2,6-(E,E)-(2-(trifluoromethyl)benzylidene)cyclohexan-1-one-4-(fluorophenethyl)oxime]	significant inhibitory effect	significant inhibitory effect
CN1CCN(CCCON=C2/C(=C/c3ccccc3C(F)(F)F)CCC/C2=C\c2ccccc2C(F)(F)F)CC1 [Example 30, 2,6-(E,E)-(2-(trifluoromethyl)benzylidene)cyclohexan-1-one-(3-(4-methylpiperazin-1-yl)propyl)oxime]	–	significant inhibitory effect
FC(F)(F)c1ccccc1/C=C1\CCC/C(=C\c2ccccc2C(F)(F)F)C1=NOCC1CCCO1 (stereo not shown) [Example 26, 2,6-(E,E)-(2-(trifluoromethyl)benzylidene)cyclohexan-1-one-((tetrahydrofuran-2-yl)methyl)oxime]	significant inhibitory effect	–
Fc1cccc(CON=C2/C(=C/c3ccccc3C(F)(F)F)CCC/C2=C\c2ccccc2C(F)(F)F)c1 [Example 18, 2,6-(E,E)-(2-(trifluoromethyl)benzylidene)cyclohexan-1-one-3-fluorobenzyl oxime]	–	significant inhibitory effect
Fc1ccc(CON=C2/C(=C/c3ccccc3C(F)(F)F)CCC/C2=C\c2ccccc2C(F)(F)F)cc1 [Example 19, 2,6-(E,E)-(2-(trifluoromethyl)benzylidene)cyclohexan-1-one-4-fluorobenzyl oxime]	significant inhibitory effect	–
Cc1cccc(CCON=C2/C(=C/c3ccccc3C(F)(F)F)CCC/C2=C\c2ccccc2C(F)(F)F)c1 [Example 22, 2,6-(E,E)-(2-(trifluoromethyl)benzylidene)cyclohexan-1-one-3-(methylphenylethyl)oxime]	significant inhibitory effect	–
FC(F)(F)c1ccccc1/C=C1\CCC/C(=C\c2ccccc2C(F)(F)F)C1=NOCC1OCCO1 [Example 27, 2,6-(E,E)-(2-(trifluoromethyl)benzylidene)cyclohexan-1-one-((1,3-dioxolan-2-yl)methyl)oxime]	significant inhibitory effect	significant inhibitory effect
FC(F)(F)c1ccccc1/C=C1\CCC/C(=C\c2ccccc2C(F)(F)F)C1=NOCCC1OCCO1 [Example 29]	significant inhibitory effect	–
COc1cccc(CON=C2/C(=C/c3ccccc3C(F)(F)F)CCC/C2=C\c2ccccc2C(F)(F)F)c1 [Example 16, 2,6-(E,E)-(2-(trifluoromethyl)benzylidene)cyclohexan-1-one-3-methoxybenzyl oxime]	–	significant inhibitory effect
CC(C)ON=C1/C(=C/c2ccccc2C(F)(F)F)CCC/C1=C\c1ccccc1C(F)(F)F [Example 10, 2,6-(E,E)-(2-(trifluoromethyl)benzylidene)cyclohexan-1-one isopropyl oxime]	–	significant inhibitory effect
Clc1ccc(/C=C2\CCC/C(=C\c3ccc(Cl)c(Cl)c3)C2=NOCCN2CCOCC2)cc1Cl [Example 39, 2,6-(E,E)-(3,4-(dichloro)benzylidene)cyclohexan-1-one-2-(morpholinoethyl)oxime]	significant inhibitory effect	significant inhibitory effect
FC(F)(F)c1ccccc1/C=C1\CCC/C(=C\c2ccccc2C(F)(F)F)C1=NOCC1CCOCC1 [Example 28, 2,6-(E,E)-(2-(trifluoromethyl)benzylidene)cyclohexan-1-one-(tetrahydro-2H-pyran-4-yl) methyl oxime]	significant inhibitory effect	significant inhibitory effect
Oc1ccc(/C=C2\CCC/C(=C\c3ccc(O)cc3)C2=NOCC2CCCC2)cc1 [Example 37, 2,6-(E,E)-(4-(hydroxy)benzylidene)cyclohexan-1-one cyclopentylmethyl oxime]	significant inhibitory effect	significant inhibitory effect
FC(F)(F)c1ccccc1/C=C1\CCC/C(=C\c2ccccc2C(F)(F)F)C1=NOCCN1CCOCC1 [Example 7, 2,6-(E,E)-(2-(trifluoromethyl)benzylidene)cyclohexan-1-one-2-(morpholinoethyl)oxime]	significant inhibitory effect	significant inhibitory effect
Fc1cccc(CCON=C2/C(=C/c3ccccc3C(F)(F)F)CCC/C2=C\c2ccccc2C(F)(F)F)c1 [Example 24, 2,6-(E,E)-(2-(trifluoromethyl)benzylidene)cyclohexan-1-one-3-(fluorophenethyl)oxime]	significant inhibitory effect	–
FC(F)(F)c1ccccc1/C=C1\CCC/C(=C\c2ccccc2C(F)(F)F)C1=NOCC1CCCC1 [Example 13, 2,6-(E,E)-(2-(trifluoromethyl)benzylidene)cyclohexan-1-one cyclopentylmethyl oxime]	–	significant inhibitory effect
CC(C)ON=C1/C(=C/c2ccccc2F)CCC/C1=C\c1ccccc1F [Example 33, 2,6-(E,E)-(2-(fluoro)benzylidene)cyclohexan-1-one isopropyl oxime]	significant inhibitory effect	significant inhibitory effect
FC(F)(F)c1ccccc1/C=C1\CCC/C(=C\c2ccccc2C(F)(F)F)C1=NOCc1c(Cl)cccc1Cl [Example 20, 2,6-(E,E)-(2-(trifluoromethyl)benzylidene)cyclohexan-1-one-2,6-dichlorobenzyl oxime]	–	significant inhibitory effect
FC(F)(F)c1ccccc1/C=C1\CCC/C(=C\c2ccccc2C(F)(F)F)C1=NOCCCN1CCCC1 [Example 6, 2,6-(E,E)-(2-(trifluoromethyl)benzylidene)cyclohexan-1-one-3-(pyrrolidin-1-yl)propyl oxime]	–	significant inhibitory effect
COCCON=C1/C(=C/c2ccc(OC)cc2)CCC/C1=C\c1ccc(OC)cc1 [Example 35, 2,6-(E,E)-(4-(methoxy)benzylidene)cyclohexan-1-one-(2-methoxyethyl)oxime]	significant inhibitory effect	significant inhibitory effect
CCCON=C1/C(=C/c2ccccc2)CCC/C1=C\c1ccccc1 [Example 32, 2,6-(E,E)-(benzylidene)cyclohexan-1-one propyl oxime]	significant inhibitory effect	significant inhibitory effect
FC(F)(F)c1ccccc1/C=C1\CCC/C(=C\c2ccccc2C(F)(F)F)C1=NOCCN1CCCC1 [Example 5]	–	significant inhibitory effect
